Results taken from PubChem BioAssay AID1963827 (Molecular Pharmacology Branch, DTP, NCI, 2024).

System: 994946-033-R-J1-PDC complex spheroid viability
Assay: Anticancer human tumor 994946-033-R-J1-PDC patient-derived melanoma cell line growth inhibition [POLQ]
Conditions: for IC50: curve of first compound; for viability, T/C: stronger effect = lower value
Summary of the method: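 Patient-derived tumour cells were co-cultured with HUVEC and mesenchymal stem cells as multicellular spheroids at 37 °C. They were treated with POLQ inhibitors (novobiocin, ART-558, RP6685) alone or combined with other agents. Top concentrations were at or near clinical Cmax (otherwise 10 microM; SN-38 at 1 microM), decreasing in half-log steps.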

[1] = second compound 0.0316 µM, first compound 0.0316 µM
[2] = second compound 0.0316 µM, first compound 0.1 µM
[3] = second compound 0.0316 µM, first compound 0.316 µM
[4] = second compound 0.0316 µM, first compound 1 µM
[5] = second compound 0.0316 µM, first compound 3.16 µM
[6] = second compound 0.0316 µM, first compound 10 µM
[7] = second compound 0.1 µM, first compound 0.0316 µM
[8] = second compound 0.1 µM, first compound 0.1 µM
[9] = second compound 0.1 µM, first compound 0.316 µM
[10] = second compound 0.1 µM, first compound 1 µM
[11] = second compound 0.1 µM, first compound 3.16 µM
[12] = second compound 0.1 µM, first compound 10 µM
[13] = second compound 0.316 µM, first compound 0.0316 µM
[14] = second compound 0.316 µM, first compound 0.1 µM
[15] = second compound 0.316 µM, first compound 0.316 µM
[16] = second compound 0.316 µM, first compound 1 µM
[17] = second compound 0.316 µM, first compound 3.16 µM
[18] = second compound 0.316 µM, first compound 10 µM
[19] = second compound 1 µM, first compound 0.0316 µM
[20] = second compound 1 µM, first compound 0.1 µM
[21] = second compound 1 µM, first compound 0.316 µM
[22] = second compound 1 µM, first compound 1 µM
[23] = second compound 1 µM, first compound 3.16 µM
[24] = second compound 1 µM, first compound 10 µM
[25] = second compound 3.16 µM, first compound 0.0316 µM
[26] = second compound 3.16 µM, first compound 0.1 µM
[27] = second compound 3.16 µM, first compound 0.316 µM
[28] = second compound 3.16 µM, first compound 1 µM
[29] = second compound 3.16 µM, first compound 3.16 µM
[30] = second compound 3.16 µM, first compound 10 µM
[31] = second compound 10 µM, first compound 0.0316 µM
[32] = second compound 10 µM, first compound 0.1 µM
[33] = second compound 10 µM, first compound 0.316 µM
[34] = second compound 10 µM, first compound 1 µM
[35] = second compound 10 µM, first compound 3.16 µM
[36] = second compound 10 µM, first compound 10 µM
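Note: spheroids exposed to drugs for 7 days.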
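Throughout, for viability, T/C: 100% = DMSO vehicle treated spheroids.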

## CC(=O)O[C@H]1C(=O)[C@@]2(C)[C@H]([C@H](OC(=O)c3ccccc3)[C@]3(O)C[C@H](OC(=O)[C@H](O)[C@@H](NC(=O)c4ccccc4)c4ccccc4)C(C)=C1C3(C)C)[C@]1(OC(C)=O)CO[C@@H]1C[C@@H]2O + COC1C(OC(N)=O)C(O)C(Oc2ccc3c(O)c(NC(=O)c4ccc(O)c(CC=C(C)C)c4)c(=O)oc3c2C)OC1(C)C
Second compound 0.0316 µM
  IC50: < 0.00949 µM
Second compound 0.1 µM
  IC50: < 0.00949 µM
Second compound 0.316 µM
  IC50: < 0.00949 µM
Second compound 1 µM
  IC50: < 0.00949 µM
Second compound 3.16 µM
  IC50: < 0.00949 µM
Second compound 10 µM
  IC50: < 0.00949 µM
Second compound 0.0316 µM, first compound 0.00949 µM
  viability, T/C: 23.9%
Second compound 0.0316 µM, first compound 0.03 µM
  viability, T/C: 25.3%
Second compound 0.0316 µM, first compound 0.0949 µM
  viability, T/C: 16.4%
Second compound 0.0316 µM, first compound 0.3 µM
  viability, T/C: 12.5%
Second compound 0.0316 µM, first compound 0.949 µM
  viability, T/C: 12%
Second compound 0.0316 µM, first compound 3 µM
  viability, T/C: 10.4%
Second compound 0.1 µM, first compound 0.00949 µM
  viability, T/C: 24.4%
Second compound 0.1 µM, first compound 0.03 µM
  viability, T/C: 20.5%
Second compound 0.1 µM, first compound 0.0949 µM
  viability, T/C: 14.5%
Second compound 0.1 µM, first compound 0.3 µM
  viability, T/C: 11.9%
Second compound 0.1 µM, first compound 0.949 µM
  viability, T/C: 14.2%
Second compound 0.1 µM, first compound 3 µM
  viability, T/C: 9.19%
Second compound 0.316 µM, first compound 0.00949 µM
  viability, T/C: 20.4%
Second compound 0.316 µM, first compound 0.03 µM
  viability, T/C: 23.3%
Second compound 0.316 µM, first compound 0.0949 µM
  viability, T/C: 23.7%
Second compound 0.316 µM, first compound 0.3 µM
  viability, T/C: 17.2%
Second compound 0.316 µM, first compound 0.949 µM
  viability, T/C: 15.4%
Second compound 0.316 µM, first compound 3 µM
  viability, T/C: 14.9%
Second compound 1 µM, first compound 0.00949 µM
  viability, T/C: 22.8%
Second compound 1 µM, first compound 0.03 µM
  viability, T/C: 18%
Second compound 1 µM, first compound 0.0949 µM
  viability, T/C: 17.1%
Second compound 1 µM, first compound 0.3 µM
  viability, T/C: 18.5%
Second compound 1 µM, first compound 0.949 µM
  viability, T/C: 14.7%
Second compound 1 µM, first compound 3 µM
  viability, T/C: 10.9%
Second compound 3.16 µM, first compound 0.00949 µM
  viability, T/C: 23.8%
Second compound 3.16 µM, first compound 0.03 µM
  viability, T/C: 20.4%
Second compound 3.16 µM, first compound 0.0949 µM
  viability, T/C: 19.9%
Second compound 3.16 µM, first compound 0.3 µM
  viability, T/C: 15.4%
Second compound 3.16 µM, first compound 0.949 µM
  viability, T/C: 15.1%
Second compound 3.16 µM, first compound 3 µM
  viability, T/C: 11.3%
Second compound 10 µM, first compound 0.00949 µM
  viability, T/C: 21.5%
Second compound 10 µM, first compound 0.03 µM
  viability, T/C: 26%
Second compound 10 µM, first compound 0.0949 µM
  viability, T/C: 16.2%
Second compound 10 µM, first compound 0.3 µM
  viability, T/C: 12.8%
Second compound 10 µM, first compound 0.949 µM
  viability, T/C: 14.9%
Second compound 10 µM, first compound 3 µM
  viability, T/C: 8.96%

## CCCS(=O)(=O)Nc1ccc(F)c(C(=O)c2c[nH]c3ncc(-c4ccc(Cl)cc4)cc23)c1F + COC1C(OC(N)=O)C(O)C(Oc2ccc3c(O)c(NC(=O)c4ccc(O)c(CC=C(C)C)c4)c(=O)oc3c2C)OC1(C)C
Second compound 0.0316 µM
  IC50: 6.68 µM
Second compound 0.1 µM
  IC50: 5.99 µM
Second compound 0.316 µM
  IC50: 5.14 µM
Second compound 1 µM
  IC50: 6.12 µM
Second compound 3.16 µM
  IC50: 4.85 µM
Second compound 10 µM
  IC50: 6.15 µM
[1]
  viability, T/C: 128%
[2]
  viability, T/C: 113%
[3]
  viability, T/C: 99.6%
[4]
  viability, T/C: 93.4%
[5]
  viability, T/C: 109%
[6]
  viability, T/C: 18.3%
[7]
  viability, T/C: 102%
[8]
  viability, T/C: 98.7%
[9]
  viability, T/C: 89.3%
[10]
  viability, T/C: 105%
[11]
  viability, T/C: 106%
[12]
  viability, T/C: 9.61%
[13]
  viability, T/C: 104%
[14]
  viability, T/C: 101%
[15]
  viability, T/C: 97.3%
[16]
  viability, T/C: 121%
[17]
  viability, T/C: 75.3%
[18]
  viability, T/C: 15.4%
[19]
  viability, T/C: 90.5%
[20]
  viability, T/C: 93.4%
[21]
  viability, T/C: 90.4%
[22]
  viability, T/C: 108%
[23]
  viability, T/C: 91.3%
[24]
  viability, T/C: 19.2%
[25]
  viability, T/C: 113%
[26]
  viability, T/C: 111%
[27]
  viability, T/C: 104%
[28]
  viability, T/C: 93.8%
[29]
  viability, T/C: 67.5%
[30]
  viability, T/C: 20.2%
[31]
  viability, T/C: 102%
[32]
  viability, T/C: 107%
[33]
  viability, T/C: 112%
[34]
  viability, T/C: 94.2%
[35]
  viability, T/C: 99.9%
[36]
  viability, T/C: 13.5%

## O=c1[nH]cc(F)c(=O)[nH]1 + Cc1cccc(N(C)C(=O)C2C(O)CCN2c2nc(C)cc(C(F)(F)F)c2C#N)c1
Second compound 0.0316 µM
  IC50: 4.63 µM
Second compound 0.1 µM
  IC50: 2.49 µM
Second compound 0.316 µM
  IC50: 2.29 µM
Second compound 1 µM
  IC50: > 10 µM
Second compound 3.16 µM
  IC50: 1.46 µM
Second compound 10 µM
  IC50: 10 µM
[1]
  viability, T/C: 97.5%
[2]
  viability, T/C: 91.7%
[3]
  viability, T/C: 63.8%
[4]
  viability, T/C: 71.5%
[5]
  viability, T/C: 48.6%
[6]
  viability, T/C: 45.2%
[7]
  viability, T/C: 91.6%
[8]
  viability, T/C: 106%
[9]
  viability, T/C: 101%
[10]
  viability, T/C: 69.1%
[11]
  viability, T/C: 49.4%
[12]
  viability, T/C: 36.3%
[13]
  viability, T/C: 85.5%
[14]
  viability, T/C: 78.7%
[15]
  viability, T/C: 89.8%
[16]
  viability, T/C: 62.4%
[17]
  viability, T/C: 45.6%
[18]
  viability, T/C: 44.6%
[19]
  viability, T/C: 95%
[20]
  viability, T/C: 63.2%
[21]
  viability, T/C: 63%
[22]
  viability, T/C: 56.8%
[23]
  viability, T/C: 52.3%
[24]
  viability, T/C: 47.8%
[25]
  viability, T/C: 99.3%
[26]
  viability, T/C: 95%
[27]
  viability, T/C: 66%
[28]
  viability, T/C: 55.2%
[29]
  viability, T/C: 45.3%
[30]
  viability, T/C: 47.3%
[31]
  viability, T/C: 97.1%
[32]
  viability, T/C: 103%
[33]
  viability, T/C: 52.7%
[34]
  viability, T/C: 58.5%
[35]
  viability, T/C: 49.7%
[36]
  viability, T/C: 43%
